Biological target: T1, Nurr1 LBD homodimer (Homo sapiens, UniProt P43354)
T1 construct: a plasmid construct encoding Nurr1 (aa 364-598) in a pMal vector system; sGFP-Nurr1 LBD protein and sGFP-RXRα LBD[26] were titrated against a fixed concentration of Tb-SA conjugated Nurr1 LBD protein; MBP (cleaved yes); made in house; host or cells: E.coli BL21-R3-pRARE2 (biotinylated Nurr1 LBD)
Test: HTRF Nurr1 homodimer formation assay
Assay type: biochemical

T1 sequence (P43354 364-598 limits assumed): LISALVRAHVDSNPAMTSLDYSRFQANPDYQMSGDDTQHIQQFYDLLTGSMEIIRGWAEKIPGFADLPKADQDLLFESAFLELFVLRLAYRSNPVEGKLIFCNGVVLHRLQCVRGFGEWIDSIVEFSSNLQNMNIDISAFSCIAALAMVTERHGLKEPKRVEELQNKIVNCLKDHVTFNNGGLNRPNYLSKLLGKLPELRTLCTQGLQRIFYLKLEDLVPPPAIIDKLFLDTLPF

## O=C(O)C1=C(C(=O)Nc2ccc(-c3ccccc3OCc3ccccc3)cc2F)CCC1 [compound 1, 2-{[2’-(Benzyloxy)-3-fluoro-[1,1’-biphenyl]-4-yl]carbamoyl}cyclopent-1-ene-1-carboxylic acid]
  effect on Nurr1 homodimerization: markedly disrupted

From publication PMC12095788 (Communications Chemistry, 2025)
